Measured values: patent US9707244B2, “Compositions and methods for treating conditions that affect epidermis” (Gencia Corporation, priority 2013, dated 2017)

Legend:
[1] = system: fibroblasts; assay: Oxygen consumption rate (XF24 extracellular flux analyzer) in fibroblasts; type: cell-based; settings: 5 nM to 500 nM; within thirty minutes of treatment; compared to 10 μM unmodified creatine
Method: In this assay, an XF24 extracellular flux analyzer (Seahorse Bioscience, North Billerica, Mass.) was used to measure mitochondrial oxygen consumption in intact cells. The XF24 analyzer creates a transient 7 μL chamber in specialized microplates that allows determination of oxygen and proton concentrations in real time through the measurement of oxygen sensitive dyes by the XF24 instrument. 24 hours prior to OCR measurement, fibroblasts were seeded into 20 wells of the 24 well tissue culture plate while 1 ml of XF Calibrant solution (Seahorse Bioscience, North Billerica, Mass.) was added to each well of a 24 well dual-analyte sensor cartridge (Seahorse Bioscience, North Billerica, Mass.). The sensor cartridge repositioned on the 24 well calibration plate, and the plate was incubated overnight at 37° C. without additional CO2.
On the day of the experiment, the injection ports on the sensor cartridge were loaded with compound A-1 or creatine as indicated at 10× concentrations and placed into the XF24 Flux Analyzer for automated calibration. […]
The results of the assay for Mitocreatine at 5 nM, 10 nM, 50 nM, and 500 nM concentrations are shown in FIG. 2 as a percent change from the untreated control. For comparison, the results obtained Mitocreatine were compared with the percent increase in oxygen consumption rate measured upon addition of 10 μM creatine.

[2] = system: C57BL/6J mice; assay: Forced treadmill endurance test; type: in vivo; settings: 10, 20, 30 mg/kg p.o. once daily for 30 days
Method: Group Setting: C57BL/6J mice were randomly assigned into five groups with different treatment started with balanced full-paw and fore-paw grip strength. Seventy five female mice were dosed at 4 PM for 30 consecutive days (qd). • 1. Vehicle (p.o. via oral gavage once daily for 30 days, n=15) • 2. Creatine (300 mg/kg, p.o. via oral gavage once daily for 30 days, n=15) • 3. Mitocreatine (10 mg/kg, p.o. via oral gavage once daily for 30 days, n=15) • 4. Mitocreatine (20 mg/kg, p.o. via oral gavage once daily for 30 days, n=15) • 5. Mitocreatine (30 mg/kg, p.o. via oral gavage once daily for 30 days, n=15). 75 mice (group 1-5) were tested on the treadmill with a previously optimized protocol as described below. The mice were habituized to the treadmill at two separate occasions, with a habituation protocol. Mice were allowed to acclimate to the testing room for at least 30 min before tested. Mice were initially placed on a treadmill running at 5 m/min for 2 minutes. The treadmill belt was set horizontally. The treadmill speed was then increased to 20 m/min in […] at steps of 5 m/min in every 10 sec with the shocking grid set at 0.2 mA. Mice were allowed to run for 20 minutes. […] The total running time until exhaustion was recorded. […] Data were expressed as Mean±S.E.M. and analyzed with one-way ANOVA followed by Bonferroni test compared to vehicle group, *P<0.05, **P<0.01 (FIG. 32).

[3] = system: ARPE-19 cells, a retinal pigmented epithelial cell line; assay: XF24 oxygen consumption in senescent ARPE-19 cells; type: cell-based, human; settings: twenty-four hours after treatment; increasing concentrations
Method: In the present invention ARPE-19 cells were used to evaluate whether Mitocreatine improves mitochondrial parameters and reduces ROS in a cell model of AMD. The cells were prematurely senescenced according to the protocol of Glotin et al. (2008). […] Cells were plated in a XF24 (Seahorse Biosciences) plate for analysis of mitochondrial activities. Twenty-four hours before analysis in the XF24 instrument, cells were treated with increasing concentrations on mitocreatine and vehicle. Twenty-four hours after treatment basal oxygen consumption rates (OCR) were assayed. […] Cells were plated in a XF24 (Seahorse Biosciences) plate for analysis of mitochondrial activities. Twenty-four hours before analysis in the XF24 instrument, cells were treated with increasing concentrations on mitocreatine and vehicle. Twenty-four hours after treatment FCCP-stimulated oxygen consumption rates (maximal OCR) were assayed.

SMILES: CN(CC(=O)NCCC[P+](c1ccccc1)(c1ccccc1)c1ccccc1)C(=N)N.Cl.[Cl-] [Mitocreatine, N^2-[ammonio(imino)methyl]-N^2-methyl-N-[3-(triphenylphosphonio)propyl] glycinamide dichloride]
- oxygen consumption rate [1]: significant increase in oxygen consumption rate
- endurance (total running time) [2]: Increases Endurance
- basal oxygen consumption [3]: dose-dependent increase
- maximal oxygen consumption (FCCP-stimulated) [3]: dose-dependent increase
